Publication PMC12410356 (International Journal for Parasitology: Drugs and Drug …, 2025)

Legend:
[1] = tested on: E. multilocularis metacestode vesicles; assay: Phosphoglucose isomerase (PGI) release assay (damage-marker release) on metacestode vesicles; format: cell-based, Echinococcus multilocularis; settings: 10 μM; for PGI d5 (relative PGI release): 5 days; for PGI d12 (relative PGI release): 12 days
Experimental: In order to quantify the drug-induced damage on whole metacestode vesicles, phosphoglucose isomerase (PGI) assay was performed as described previously ([Stadelmann et al., 2010]) with few adaptations published recently ([Kaethner et al., 2023]). In short, 8 to 12 weeks-old metacestode vesicles were purified using 2 % sucrose with subsequent washes in PBS. Metacestode vesicles were diluted in two volumes of DMEM without phenol red containing penicillin (100 U/mL) and streptomycin (100 μg/mL). […] 0.1 % DMSO was used as a negative solvent control and 0.1 % Triton X-100 was used as a positive total damage control. Metacestode vesicles were incubated under a humid, 5 % CO2 atmosphere at 37 °C. After five and twelve days, supernatant was taken and pictures were made using a Nikon SMZ18 stereo microscope (Nikon, Basel, Switzerland) at 7.5 × magnification. PGI activity in the supernatants was measured on a HIDEX Sense microplate reader (Hidex, Turku, Finland). The corresponding values of the DMSO controls were subtracted from the values of the compounds and then PGI activity was calculated relative to 0.1 % Triton X-100. […] IC50 values were calculated applying the 3 parameter Weibull type 1 in R for each of the three independent experiments ([Ritler et al., 2020]).

[2] = tested on: E. multilocularis metacestode vesicles; assay: Metacestode vesicle viability assay (ATP, CellTiter-Glo); format: cell-based, Echinococcus multilocularis
Experimental: Viability was assessed after 12 days using the same metacestode vesicles as for the PGI release assay. Triton X-100 was added to each well to a final concentration of 0.1 %. Subsequently the metacestode vesicles were broken mechanically and 50 μL of the supernatant was mixed with 50 μL of CellTiter-Glo® buffer (Promega, Dübendorf, Switzerland). Measurements were performed on a HIDEX Sense microplate reader.

[3] = overview screen, singlets, relative to 0.1 % Triton X-100, DMSO subtracted
[4] = overview screen, 10 μM, singlets, 12 days, relative to DMSO control
[5] = confirmation screen, triplicates, mean

Row | Structure (SMILES) | PGI d5 (relative PGI release) [1, 3] | PGI d12 (relative PGI release) [1, 3] | Viability d12 (relative viability) [2, 4] | PGI d5 (relative PGI release) [1, 5] | PGI d12 (relative PGI release) [1, 5] | Viability d12 (relative viability) ([2]; confirmation screen, 10 μM, triplicates, mean, 12 days) | Viability d12 (relative viability) ([2]; 10 µM)
1 | COc1cc(Cc2cnc(N)nc2N)cc(OC)c1OC [MMV000028] | -3.0237% | -24.4435% | 71.724% | – | – | – | –
2 | COc1cc(C)c2c(Oc3cccc(C(F)(F)F)c3)c(OC)cc(NC(C)CCCN)c2n1.O=C(O)CCC(=O)O (stereo not drawn) [MMV000043] | 8.8572% | -12.8411% | 100.948% | – | – | – | –
3 | CCC[C@@H]1C[C@@H](C(=O)N[C@@H]([C@H]2O[C@H](SC)[C@H](O)[C@@H](O)[C@H]2O)[C@H](C)Cl)N(C)C1.Cl [MMV000051] | 15.4885% | 58.7211% | 23.7506% | 0.38% | -0.19% | 61.99% | –
4 | CONC(=N)c1ccc(-c2ccc(-c3ccc(C(=N)NOC)cc3)o2)cc1 [MMV000059] | -1.411% | -24.9567% | 226.694% | – | – | – | –
5 | CCN(CC)CCn1c(=N)n(CC(O)COc2ccc(Cl)cc2Cl)c2ccccc21 (stereo not drawn) [MMV000725] | -2.18% | -13.7901% | 72.9764% | – | – | – | –
6 | O=C(c1ccccc1)N1CCN(c2ccccc2NC(=O)C(Cl)(Cl)Cl)CC1 [MMV001014] | 0.3132% | -4.23% | 104.308% | – | – | – | –
7 | Cc1c(OCC(F)(F)F)ccnc1C[S+]([O-])c1nc2ccccc2[nH]1 (stereo not drawn) [MMV001438] | 1.578% | -2.884% | 96.7343% | – | – | – | –
8 | CCCCc1ccc(C(=O)O)nc1 [MMV001726] | -0.06574% | -20.229% | 162.188% | – | – | – | –
9 | CC1=C(/C=C/C(C)=C/C=C/C(C)=C/C(=O)Nc2ccc(O)cc2)C(C)(C)CCC1 [MMV001793] | 0.1304% | -19.3598% | 54.0144% | – | – | – | –
10 | Clc1ccc(Cn2c(CN3CCCC3)nc3ccccc32)cc1 [MMV002015] | -0.9034% | -18.1648% | – | – | – | – | 85.4319%
11 | NNC(=O)c1ccncc1 [MMV002169] | 1.814% | -1% | 113.159% | – | – | – | –
12 | Cc1onc(-c2ccccc2)c1-c1ccc(S(N)(=O)=O)cc1 [MMV002260] | 0.1005% | -4.614% | 84.2251% | – | – | – | –
13 | OC(Cn1cncn1)(Cn1cncn1)c1ccc(F)cc1F [MMV002337] | -1.63% | -24.335% | 76.1493% | – | – | – | –
14 | CCn1cc(C(=O)O)c(=O)c2cc(F)c(N3CCNC(C)C3)c(F)c21.Cl (stereo not drawn) [MMV002350] | 0.8503% | 0.3517% | – | – | – | – | 92.559%
15 | C[C@@H]1O[C@@H]1P(=O)(O)O [MMV002354] | 4.505% | -11.1824% | 22.2102% | – | – | – | –
16 | NC[C@H]1O[C@H](O[C@H]2[C@H](O)[C@@H](O[C@H]3O[C@H](CO)[C@@H](O)[C@H](N)[C@H]3O)[C@H](N)C[C@@H]2N)[C@H](N)C[C@@H]1O [MMV002459] | -1.087% | -12.65% | 35.1523% | – | – | – | –
17 | CSc1ccc2c(c1)C(N1CCN(C)CC1)Cc1ccccc1S2 (stereo not drawn) [MMV002505] | 0.4968% | -0.02837% | 82.0463% | – | – | – | –
18 | CC[C@@H]1C(=O)OC[C@@H]1Cc1cncn1C.Cl [MMV002516] | -2.121% | -7.265% | 84.666% | – | – | – | –
19 | CO/N=C(\C(=O)N[C@@H]1C(=O)N2C(C(=O)OCOC(=O)C(C)(C)C)=C(/C=C\c3scnc3C)CS[C@H]12)c1csc(N)n1 [MMV002560] | -2.539% | -11.7788% | 19.8723% | – | – | – | –
